PubChem BioAssay (NCI)
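Exposure lasted 48 hours, with cells grown in 96-well plates and compounds tested at five concentrations. At the TGI there is no net growth.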

Tests used:
Assay in all cases: growth of human tumour cells (NCI), 48 h
BT-549 breast = test system: BT-549 breast
DU-145 prostate = test system: DU-145 prostate
HCC-2998 colon = test system: HCC-2998 colon
HCT-116 colon = test system: HCT-116 colon
HS 578T breast = test system: HS 578T breast
IGROV1 ovarian = test system: IGROV1 ovarian
LOX IMVI melanoma = test system: LOX IMVI melanoma
MCF7 breast = test system: MCF7 breast
RXF 393 renal = test system: RXF 393 renal
SK-MEL-2 melanoma = test system: SK-MEL-2 melanoma
SNB-75 CNS = test system: SNB-75 CNS
SW-620 colon = test system: SW-620 colon
TK-10 renal = test system: TK-10 renal
A498 renal = test system: A498 renal
HL-60(TB) leukemia = test system: HL-60(TB) leukemia
HOP-92 NSCLC = test system: HOP-92 NSCLC
K-562 leukemia = test system: K-562 leukemia

SMILES: COc1ccc(/C=C2\N=C(SC)NC2=O)cc1
- TGI (BT-549 breast): > 100 µM
- TGI (DU-145 prostate): > 100 µM
- TGI (HCC-2998 colon): > 100 µM
- TGI (HCT-116 colon): > 100 µM
- TGI (HS 578T breast): > 100 µM
- TGI (IGROV1 ovarian): > 100 µM
- TGI (LOX IMVI melanoma): > 100 µM
- TGI (MCF7 breast): > 100 µM
- TGI (RXF 393 renal): > 100 µM
- TGI (SK-MEL-2 melanoma): > 100 µM
- TGI (SNB-75 CNS): > 100 µM
- TGI (SW-620 colon): > 100 µM
- TGI (TK-10 renal): > 100 µM

SMILES: Cc1ccc2c(c1)C(=O)C1(C2)Cc2cccc(C)c2C1=O (configuration not stated)
- TGI (A498 renal): > 100 µM
- TGI (DU-145 prostate): > 100 µM
- TGI (HCC-2998 colon): > 100 µM
- TGI (HCT-116 colon): > 100 µM
- TGI (HL-60(TB) leukemia): > 100 µM
- TGI (HOP-92 NSCLC): > 100 µM
- TGI (HS 578T breast): > 100 µM
- TGI (IGROV1 ovarian): > 100 µM
- TGI (K-562 leukemia): > 100 µM
- TGI (LOX IMVI melanoma): > 100 µM
- TGI (MCF7 breast): > 100 µM
- TGI (RXF 393 renal): > 100 µM
- TGI (SNB-75 CNS): > 100 µM
- TGI (SW-620 colon): > 100 µM
- TGI (TK-10 renal): > 100 µM

SMILES: CC(C)CC(O)P(=O)(O)O (configuration not stated)
- TGI (A498 renal): > 100 µM
- TGI (DU-145 prostate): > 100 µM
- TGI (HCC-2998 colon): > 100 µM
- TGI (HCT-116 colon): > 100 µM
- TGI (HL-60(TB) leukemia): > 100 µM
- TGI (K-562 leukemia): > 100 µM
- TGI (MCF7 breast): > 100 µM
- TGI (RXF 393 renal): > 100 µM
- TGI (SK-MEL-2 melanoma): > 100 µM
- TGI (SNB-75 CNS): > 100 µM
- TGI (SW-620 colon): > 100 µM
- TGI (TK-10 renal): > 100 µM

SMILES: CC(=O)NC1c2ccccc2C(C)(C)C12CCC1(CC2)OCCO1 (configuration not stated)
- TGI (BT-549 breast): > 100 µM
- TGI (DU-145 prostate): > 100 µM
- TGI (HCC-2998 colon): > 100 µM
- TGI (HCT-116 colon): > 100 µM
- TGI (HL-60(TB) leukemia): > 100 µM
- TGI (HS 578T breast): > 100 µM
- TGI (IGROV1 ovarian): > 100 µM
- TGI (K-562 leukemia): > 100 µM
- TGI (LOX IMVI melanoma): > 100 µM
- TGI (MCF7 breast): > 100 µM
- TGI (RXF 393 renal): > 100 µM
- TGI (SK-MEL-2 melanoma): > 100 µM
- TGI (SNB-75 CNS): > 100 µM
- TGI (SW-620 colon): > 100 µM
- TGI (TK-10 renal): > 100 µM

SMILES: CC1=NNC(=O)C1C(CC(=O)c1c[nH]c2ccccc12)C(=O)O (configuration not stated)
- TGI (A498 renal): > 100 µM
- TGI (BT-549 breast): > 100 µM
- TGI (DU-145 prostate): > 100 µM
- TGI (HCT-116 colon): > 100 µM
- TGI (HL-60(TB) leukemia): > 100 µM
- TGI (HOP-92 NSCLC): > 100 µM
- TGI (HS 578T breast): > 100 µM
- TGI (IGROV1 ovarian): > 100 µM
- TGI (K-562 leukemia): > 100 µM
- TGI (LOX IMVI melanoma): > 100 µM
- TGI (RXF 393 renal): > 100 µM
- TGI (SK-MEL-2 melanoma): > 100 µM
- TGI (SNB-75 CNS): > 100 µM
- TGI (SW-620 colon): > 100 µM
- TGI (TK-10 renal): > 100 µM

SMILES: O=C1c2cccnc2-c2nccc3c2c1nc1cc(Br)ccc13
- TGI (A498 renal): 0.0659 µM
- TGI (BT-549 breast): 1.23 µM
- TGI (DU-145 prostate): 0.421 µM
- TGI (HCC-2998 colon): 1.63 µM
- TGI (HCT-116 colon): 0.0762 µM
- TGI (HOP-92 NSCLC): 2.02 µM
- TGI (HS 578T breast): 0.942 µM
- TGI (IGROV1 ovarian): 0.31 µM
- TGI (LOX IMVI melanoma): 0.205 µM
- TGI (MCF7 breast): 0.083 µM
- TGI (RXF 393 renal): 0.355 µM
- TGI (SNB-75 CNS): 0.81 µM
- TGI (SW-620 colon): 0.162 µM
- TGI (TK-10 renal): 2.33 µM

SMILES: CSc1ncnc2c1ncn2CCC#N
- TGI (A498 renal): > 100 µM
- TGI (DU-145 prostate): > 100 µM
- TGI (HCT-116 colon): > 100 µM
- TGI (HL-60(TB) leukemia): > 100 µM
- TGI (HOP-92 NSCLC): > 100 µM
- TGI (HS 578T breast): > 100 µM
- TGI (IGROV1 ovarian): > 100 µM
- TGI (K-562 leukemia): > 100 µM
- TGI (LOX IMVI melanoma): > 100 µM
- TGI (MCF7 breast): > 100 µM
- TGI (RXF 393 renal): > 100 µM
- TGI (SNB-75 CNS): > 100 µM
- TGI (SW-620 colon): > 100 µM
- TGI (TK-10 renal): > 100 µM

SMILES: CN1[C@@H]2C[C@@H](OC(=O)[C@H](CO)c3ccccc3)C[C@H]1[C@@H]1O[C@@H]12
- TGI (A498 renal): > 100 µM
- TGI (BT-549 breast): > 100 µM
- TGI (DU-145 prostate): > 100 µM
- TGI (HCT-116 colon): > 100 µM
- TGI (HOP-92 NSCLC): > 100 µM
- TGI (HS 578T breast): > 100 µM
- TGI (IGROV1 ovarian): > 100 µM
- TGI (K-562 leukemia): > 100 µM
- TGI (LOX IMVI melanoma): > 100 µM
- TGI (MCF7 breast): > 100 µM
- TGI (RXF 393 renal): > 100 µM
- TGI (SK-MEL-2 melanoma): > 100 µM
- TGI (SW-620 colon): > 100 µM
- TGI (TK-10 renal): > 100 µM
